Source: patent US20220324835A1 (Nurix Therapeutics, Inc., priority 2018, published 2022)

What was measured:
Type in all cases: cell-based
[1] = tested on: primary human total T-cells; experiment: T-cell activation assessed by CD69 expression
Outline: (§1)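 Primary human T-cells (>95% CD3+, negative selection from PBMC) were pre-incubated with inhibitor (e.g. 10, 1.11, 0.123 μM; DMSO <0.1%) for 1 h at 37 °C. They were then stimulated 48 h with plate-bound OKT3 (coated at 10 μg/mL), alone or with 5 μg/mL soluble anti-CD28. Results are fold change over uninhibited, identically stimulated cells.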

[2] = tested on: primary human total T-cells; experiment: T-cell activation assessed by cell proliferation (Cell Trace Violet)
Outline: as §1

[3] = tested on: primary human total T-cells; experiment: T-cell activation assessed by cytokine secretion (GM-CSF, IFNγ, TNFα)
Outline: as §1

[4] = CD3/CD28 stimulation, CD4 T-cells, read-out: % CD69+ (CD4)
[5] = CD3/CD28 stimulation, CD8 T-cells, read-out: % CD69+ (CD8)
[6] = CD3 alone stimulation, CD4 T-cells, read-out: % CD69+ (CD4)
[7] = CD3 alone stimulation, CD8 T-cells, read-out: % CD69+ (CD8)
[8] = CD3/CD28 stimulation, CD4 T-cells, read-out: % CP (cell proliferation) (CD4)
[9] = CD3/CD28 stimulation, CD8 T-cells, read-out: % CP (cell proliferation) (CD8)
[10] = CD3 alone stimulation, CD8 T-cells, read-out: % CP (cell proliferation) (CD8)
[11] = CD3/CD28 stimulation, read-out: GM-CSF secretion
[12] = CD3/CD28 stimulation, read-out: IFNγ secretion
[13] = CD3/CD28 stimulation, read-out: TNFα secretion
[14] = CD3 alone stimulation, read-out: GM-CSF secretion
[15] = CD3 alone stimulation, read-out: IFNγ secretion
[16] = CD3 alone stimulation, read-out: TNFα secretion

Row | Compound | fold induction at 1.11 µM [1, 4] | fold induction at 10 µM [1, 4] | fold induction at 1.11 µM [1, 5] | fold induction at 10 µM [1, 5] | fold induction at 1.11 µM [1, 6] | fold induction at 10 µM [1, 6] | fold induction at 1.11 µM [1, 7] | fold induction at 10 µM [1, 7] | fold induction at 1.11 µM [2, 8] | fold induction at 10 µM [2, 8] | fold induction at 1.11 µM [2, 9] | fold induction at 10 µM [2, 9] | fold induction at 1.11 µM [2, 10] | fold induction at 10 µM [2, 10] | fold induction at 1.11 µM [3, 11] | fold induction at 1.11 µM [3, 12] | fold induction at 1.11 µM [3, 13] | fold induction at 10 µM [3, 11] | fold induction at 10 µM [3, 12] | fold induction at 10 µM [3, 13] | other results
1 | Cn1cnnc1C(F)(F)[C@](C)(F)c1cccc(N2Cc3c(cc(CN4CC[C@@H](C#N)C4)cc3C(F)(F)F)C2=O)c1 [Compound 455, (R)-1-((3-oxo-2-(3-((R)-1,1,2-trifluoro-1-(4-methyl-4H-1,2,4-triazol-3-yl)propan-2-yl)phenyl)-7-(trifluoromethyl)isoindolin-5-yl)methyl)pyrrolidine-3-carbonitrile] | 1.2 to 1.4 | 1.4 to 1.6 | 1.2 to 1.4 | 1.2 to 1.4 | 1.4 to 1.6 | > 1.6 | 1.2 to 1.4 | 1.4 to 1.6 | > 4 | > 4 | 3.01 to 4 | > 4 | > 4 | > 4 | 2.01 to 4 | > 4 | 2.01 to 4 | > 4 | > 4 | 2.01 to 4 | fold induction at 1.11 µM [3, 14]: 1.51 to 2; fold induction at 1.11 µM [3, 15]: 2.01 to 3; fold induction at 1.11 µM [3, 16]: ≤ 1.5; fold induction at 10 µM [3, 14]: 2.01 to 4; fold induction at 10 µM [3, 15]: 3.01 to 4; fold induction at 10 µM [3, 16]: 2.01 to 4
2 | C[C@H](Cc1nncn1C)c1cccc(NC(=O)c2cc3cc(N4CCNCC4)ccc3cn2)c1 [Compound 472, N-{3-[(2R)-1-(4-methyl-4H-1,2,4-triazol-3-yl)propan-2-yl]phenyl}-6-(piperazin-1-yl)isoquinoline-3-carboxamide] | 1.2 to 1.4 | 1.4 to 1.6 | ≤ 1.2 | 1.2 to 1.4 | 1.4 to 1.6 | 1.4 to 1.6 | ≤ 1.2 | 1.2 to 1.4 | 3.01 to 4 | > 4 | 2.01 to 3 | 2.01 to 3 | 2.01 to 3 | < 2 | 1.51 to 2 | < 2 | 1.51 to 2 | 2.01 to 4 | < 2 | 1.51 to 2 | fold induction at 1.11 µM [3, 14]: 1.51 to 2; fold induction at 1.11 µM [3, 15]: < 2; fold induction at 1.11 µM [3, 16]: ≤ 1.5; fold induction at 10 µM [3, 14]: 1.51 to 2; fold induction at 10 µM [3, 15]: < 2; fold induction at 10 µM [3, 16]: ≤ 1.5
3 | Cn1cnnc1CC1(c2cccc(N3Cc4c(cc(CN5CCC6(CC6)C5)cc4C(F)(F)F)C3=O)c2)COC1 [Compound 520, 6-((5-azaspiro[2.4]heptan-5-yl)methyl)-2-(3-(3-((4-methyl-4H-1,2,4-triazol-3-yl)methyl)oxetan-3-yl)phenyl)-4-(trifluoromethyl)isoindolin-1-one] | > 1.6 | > 1.6 | 1.2 to 1.4 | 1.2 to 1.4 | > 1.6 | > 1.6 | 1.4 to 1.6 | 1.4 to 1.6 | > 4 | > 4 | > 4 | > 4 | > 4 | > 4 | > 4 | > 4 | 2.01 to 4 | > 4 | > 4 | > 4 | fold induction at 1.11 µM [3, 14]: 2.01 to 4; fold induction at 1.11 µM [3, 15]: > 4; fold induction at 1.11 µM [3, 16]: 2.01 to 4; fold induction at 10 µM [3, 14]: > 4; fold induction at 10 µM [3, 15]: > 4; fold induction at 10 µM [3, 16]: 2.01 to 4
